From US11524962B2, “Substituted pyrrolo[2,3-d]pyrimidines as inhibitors of protein arginine methyl transferase 5 (PRMT5)” (PRELUDE THERAPEUTICS, INCORPORATED, priority 2017, dated 2022)
Where two headings read alike, the source gives them in different places.

Experiments:
[1] = In vivo brain exposure study in mouse; settings: po, mouse CD-1 male, 10 mg/kg p.o.
Experimental: In a mouse (CD-1, male) brain exposure cassette study, Examples 2 and 6 were dosed together at 10 mg/kg each (0.5% Na CMC+0.5% Tween80, solution) via oral gauge (p.o.). At 3 time points (N=3), 2h, 4h and 8h, plasma and brain samples were analyzed for average drug concentrations.
In a mouse (CD-1, male) brain exposure study, Examples 11 was dosed at 10 mg/kg each (0.5% Na CMC+0.5% Tween80, solution) via oral gauge (p.o.). At 3 time points (N=3), 1 h, 2h and 4h, plasma and brain samples were analyzed for average drug concentrations.

[2] = system: Symmetric Di-Methyl Arginine (sDMA) marks in U-87 MG cells; test: sDMA Western blot / In Cell Western in U-87 MG cells; format: cell-based; settings: Homo sapiens, 72 h, 3 days, read-out: sDMA_U87 IC50
Experimental: Compound titration and cell culture: Compounds were dissolved in DMSO to make 10 mM stock and 3-fold series dilutions were further conducted to make working stocks top at 1 mM. Granta-519 cells were maintained in PRMI 1640 (Corning Cellgro, Catalog #: 10-040-CV) supplemented with 10% v/v FBS (GE Healthcare, Catalog #: SH30910.03) and U-87 MG cells were maintained in DMEM (Corning Cellgro, Catalog #: 10-013-CV) with 10% FBS and 2 mM Glutamin (Corning Cellgro, Catalog #25005CV).
To determine enzyme inhibition IC50 values in Granta-519 and U-87 MG cells using Western Blot analysis. One day before experiment, Granta-519 cells were passaged to a density of 0.5×10^6 cells/ml. U-87 MG cells were trypsinized and 4×10^5 cells were seeded into 6-well plates and allow to grow overnight. The next day, Granta-519 cells were spun down at 1,500 rpm for 4 min, resuspend in fresh medium at 0.5×10^6 cells/ml and 3 mL of culture (1.5×10^6 cells) were seeded into 6 well plate. Eight-point, 3-fold serial dilutions of compound working stocks were added to cells (3 ul, 1:1,000 dilution, DMSO concentration was 0.1%; final top concentration at 1 uM) and incubated for 3 days. Cells incubated with DMSO was used as a vehicle control.
Cells were harvested 3 days later, resuspended in 15 uL PBS, lysed in 4% SDS, and homogenized by passing through homogenizer column (Omega Biotek, Catalog #: HCR003). Total protein concentrations were determined by BCA assay (ThermoFisher Scientific, Catalog #: 23225). Lysates were mixed with 5× Laemmli buffer and boiled for 5 min. Forty ug of total protein was separated on SDS-PAGE gels (Bio-Rad, catalog #: 4568083, 4568043), transferred to PVDF membrane, blocked with 5% dry milk (Bio-Rad, Catalog #: 1706404) in TBS with 0.1% v/v Tween 20 (TBST) for 1 hour at room temperature (RT), and incubated with primary antibodies (sDMA: Cell signaling, Catalog #: 13222, 1:3,000; β-Actin: sigma, Catalog #: 1:5,000) in 5% dry milk in TBST at 4° C. overnight. The next day, membranes were washed with TBST, 5×5 min, and incubated with HRP conjugated seconded antibody (GE Healthcare; Catalog #: NA934-1ML, NA931-1ML; 1:5,000) for 2 hours at RT, followed by 5×5 min washes with TBST, and incubation with ECL substrates (Bio-Rad, Catalog #: 1705061, 1705062). Chemiluminescent signal was captured with Fluochem HD2 imager (Proteinsimple). SmD3me2s bands were quantified by ImageJ. Signals were normalized to β-Actin and DMSO control. IC50 values were calculated using Graphpad Prism ([Inhibitor]vs. normalized response−Variable slope).
U87-MG cells were trypsinized one day before the experiment, seeded into a 384-well plate at 2500 cells/well using a Multidrop Combi Dispenser (ThermoFisher) and allowed to grow overnight. The next day (day 0), a series of 9-point, 3-fold serial dilutions of compounds were prepared and dispensed into wells from a 1 mM stock solution using a TECAN digital dispenser (D300e) and the DMSO % concentration was normalized to 0.1%. Three days later, media was removed, and cells were processed as described above.
To determine IC50 values, the ratio for each well was calculated (sDMA 800 nm value/DRAQ5 700 nm value). Each plate included 28 negative control wells (DMSO only, minimum inhibition) and 18 positive control wells for maximum inhibition (treated with 3 uM of a reference compounds, background wells). The average ratios of minimum and maximum inhibition controls were calculated and used to determine the percentage of sDMA, relative to DMSO, for each well in the plate.
These procedures generated the sDMA data in Table 7.

U-87 MG cells = test: Cell proliferation assay in U-87 MG cells; format: cell-based; settings: Homo sapiens, 240 h, day 10, read-out: Prolif_U87 IC50
Experimental: One day before experiment, Granta-519 cells were passaged to a density of 0.5×10^6 cells/ml. U-87 MG cells were trypsinized and 2,000 cells were seeded into 96-well plates and allow to grow overnight. On the day of experiment (day 0), Granta-519 Cells were spun down at 1,500 rpm for 4 min, resuspended in fresh medium to 0.5×10^6 cells/ml and 190 ul of cells were added to 96 well plates. For U-87 MG cells, old medium was removed and replaced with 190 uL fresh medium. Compound working stocks were first diluted at 1:50 with fresh medium in 96 well plate and 10 μL of diluted drugs were added to 96 well plates containing cells and incubated for 3 days. DMSO was used a vehicle control.
One day 3, 50 uL of Granta-519 cells were transferred to a new 96-well plate and 140 uL fresh medium was added. For U-87 MG cells, old medium was removed and replaced with 190 uL fresh medium. Compound working stocks were freshly diluted at 1:50 with medium and 10 μL of diluted drugs were added to cells and grow for 3 additional days. The same process was repeated on day 6. Cells were allowed to grow for additional 4 days.
On day 10, 100 uL Granta-519 cells were transferred to a new 96 well plate and 10 μL of Cell Counting Kit-8 (CCK-8, Jojindo, CK04-13) solution was added. For U-87 MG cells, old medium was removed and replaced with 100 uL fresh medium and 10 uL CCK-8 solution was added. Plates were incubated in CO2 incubator for 2 hours (Granta-519 cells) or 30 min (U-87 MG cells) and OD450 values were measured with a microplate reader (iMark microplate reader, Bio-Rad). Percentage of viable cells, relative to DMSO vehicle control, were calculated and plotted in Graphpad Prism ([Inhibitor]vs. normalized response−Variable slope) to determine proliferation IC50 values on day 10.
These cell proliferation procedures produced the data in Table 7.

[3] = cassette, brain, read-out: Brain-2 h
[4] = cassette, brain, read-out: Brain-4 h
[5] = cassette, brain, read-out: Brain-8 h
[6] = cassette, plasma, read-out: Plasma-2 h
[7] = cassette, plasma, read-out: Plasma-4 h
[8] = cassette, plasma, read-out: Plasma-8 h

Row | Compound | concentration at 2 h [1, 3] [ng/g] | concentration at 4 h [1, 4] [ng/g] | concentration at 8 h [1, 5] [ng/g] | concentration at 2 h [1, 6] [ng/mL] | concentration at 4 h [1, 7] [ng/mL] | concentration at 8 h [1, 8] [ng/mL] | IC50 [2] [µM] | IC50 (U-87 MG cells) [µM] | concentration at 1 h ([1]; brain, read-out: Brain-1 h) [ng/g] | concentration at 2 h ([1]; brain, read-out: Brain-2 h) [ng/g] | concentration at 4 h ([1]; brain, read-out: Brain-4 h) [ng/g] | concentration at 1 h ([1]; plasma, read-out: Plasma-1 h) [ng/mL] | concentration at 2 h ([1]; plasma, read-out: Plasma-2 h) [ng/mL] | concentration at 4 h ([1]; plasma, read-out: Plasma-4 h) [ng/mL]
1 | Nc1ncnc2c1ccn2[C@@H]1O[C@H]([C@H](O)c2ccc3c(c2)CC3)[C@@H](O)[C@H]1O [Example 2, (2R,3R,4S,5R)-2-(4-amino-7H-pyrrolo[2,3-d]pyrimidin-7-yl)-5-((R)-bicyclo[4.2.0]octa-1(6),2,4-trien-3-yl(hydroxy)methyl)tetrahydrofuran-3,4-diol] | 244 | 174 | 76.2 | 1610 | 802 | 178 |  |  |  |  |  |  |  | 
2 | Nc1ncnc2c1c(F)cn2[C@@H]1O[C@H]([C@H](O)c2ccc3c(c2)CC3)[C@@H](O)[C@H]1O [Example 6, (2R,3R,4S,5R)-2-(4-amino-5-fluoro-7H-pyrrolo[2,3-d]pyrimidin-7-yl)-5-((R)-bicyclo[4.2.0]octa-1(6),2,4-trien-3-yl(hydroxy)methyl)tetrahydrofuran-3,4-diol] | 183 | 45.9 | 50.5 | 380 | 138 | 33.7 | 0.094 | 0.115 |  |  |  |  |  | 
3 | Cc1ncnc2c1ccn2[C@@H]1O[C@H]([C@H](O)c2ccc3c(c2)CC3)[C@@H](O)[C@H]1O [Example 11, (2R,3S,4R,5R)-2-((R)-bicyclo[4.2.0]octa-1(6),2,4-trien-3-yl(hydroxy)methyl)-5-(4-methyl-7H-pyrrolo[2,3-d]pyrimidin-7-yl)tetrahydrofuran-3,4-diol] |  |  |  |  |  |  | 0.053 | 0.206 | 188 | 85.7 | 50.2 | 207 | 148 | 53.6
